The source made the active and inactive calls. The rule behind the calls is not given here.
Assays:
HL-60 [1] = assay: Cytotoxicity against human HL60 cells after 48 hrs by MTT assay; assay type: functional, cell-based; conditions: for IC50: HL-60, 48 h
MCF7 [2] = assay: Cytotoxicity against human MCF7 cells after 24 hrs by MTT assay; assay type: functional, cell-based; conditions: for IC50: MCF7, 24 h
SGC-7901 [3] = assay: Cytotoxicity against human SGC7901 cells after 24 hrs by MTT assay; assay type: functional, cell-based; conditions: for IC50: SGC-7901, 24 h
SGC-7901 [4] = assay: Cytotoxicity against human SGC7901 cells after 48 hrs by MTT assay; assay type: functional, cell-based; conditions: for IC50: SGC-7901, 48 h
GES1 [5] = assay: Cytotoxicity against human GES-1 cells after 24 hrs by MTT assay; assay type: cell-based; conditions: for IC50: Homo sapiens, GES1, 24 h; for Activity: human, ges1, 24 h
GES1 [6] = assay: Cytotoxicity against human GES-1 cells after 48 hrs by MTT assay; assay type: cell-based; conditions: for IC50: Homo sapiens, GES1, 48 h; for Activity: human, ges1, 48 h
MCF7 [7] = assay: Cytotoxicity against human MCF7 cells by MTT assay; assay type: functional, cell-based; conditions: TDE = time-dependent effect
SGC-7901 [8] = assay: Cytotoxicity against human SGC7901 cells by MTT assay; assay type: functional, cell-based; conditions: TDE = time-dependent effect
[9] = biological target: T1, Thioredoxin reductase 1, cytoplasmic (Homo sapiens) (UniProt Q16881); assay: Inhibition of TrxR in human HL60 cells assessed as residual activity at 2 times IC50 using thioredoxin as substrate up to 24 hrs measured for 5 mins by UV-Vis spectrophotometric analysis relative to control; assay type: cell-based
T1 sequence (whole entry): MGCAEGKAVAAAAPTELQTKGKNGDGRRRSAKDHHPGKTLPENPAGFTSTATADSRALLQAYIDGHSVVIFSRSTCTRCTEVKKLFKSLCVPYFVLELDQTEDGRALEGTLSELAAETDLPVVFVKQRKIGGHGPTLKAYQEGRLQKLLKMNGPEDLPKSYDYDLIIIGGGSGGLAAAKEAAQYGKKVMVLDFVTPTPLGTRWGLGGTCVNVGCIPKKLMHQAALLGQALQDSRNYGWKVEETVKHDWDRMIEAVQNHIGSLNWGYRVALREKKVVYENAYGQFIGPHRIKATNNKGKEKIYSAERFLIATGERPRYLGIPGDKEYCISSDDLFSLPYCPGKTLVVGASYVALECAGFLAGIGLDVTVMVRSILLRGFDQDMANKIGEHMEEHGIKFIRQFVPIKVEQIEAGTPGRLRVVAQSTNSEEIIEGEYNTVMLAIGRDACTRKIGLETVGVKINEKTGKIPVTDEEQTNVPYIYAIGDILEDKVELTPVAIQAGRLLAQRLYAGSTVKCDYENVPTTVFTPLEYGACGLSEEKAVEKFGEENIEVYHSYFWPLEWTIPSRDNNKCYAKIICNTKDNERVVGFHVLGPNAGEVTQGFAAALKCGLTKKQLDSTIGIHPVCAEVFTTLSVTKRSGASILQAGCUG

HL-60 [10] = assay: Induction of ROS generation in human HL60 cells at 1.5 uM after 24 hrs by DCFH-DA staining-based flow cytometry; assay type: functional, cell-based
HL-60 [11] = assay: Induction of ROS generation in human HL60 cells assessed as reduction in intracellular thiols up to 2.5 uM incubated for 12 to 24 hrs by DTNB titration method; assay type: functional, cell-based
HL-60 [12] = assay: Induction of cell death in human HL60 cells assessed as decrease in total GSH levels after 24 hrs by MTT assay; assay type: functional, cell-based
HL-60 [13] = assay: Induction of apoptosis in human HL60 cells assessed as nuclear shrinkage at 0.75 to 1.5 uM after 24 hrs by Hoechst 33342 staining-based laser scanning confocal microscopic analysis; assay type: functional, cell-based
HL-60 [14] = assay: Induction of apoptosis in human HL60 cells assessed as chromatin condensation at 0.75 to 1.5 uM after 24 hrs by Hoechst 33342 staining-based laser scanning confocal microscopic analysis; assay type: functional, cell-based
HL-60 [15] = assay: Induction of apoptosis in human HL60 cells assessed as cell nuclear shrinkage at 0.75 to 1.5 uM after 24 hrs by Hoechst 33342 staining-based laser scanning confocal microscopic analysis; assay type: functional
HL-60 [16] = assay: Induction of apoptosis in human HL60 cells assessed as abnormal cellular morphology at 0.75 to 1.5 uM after 24 hrs by Hoechst 33342 staining-based laser scanning confocal microscopic analysis; assay type: functional, cell-based
HL-60 [17] = assay: Induction of apoptosis in human HL60 cells assessed as less cell quantity at 0.75 to 1.5 uM after 24 hrs by Hoechst 33342 staining-based laser scanning confocal microscopic analysis; assay type: functional
Liver = assay: Induction of mitochondrial dysfunction in Wistar rat liver assessed as swelling at 20 uM in presence of calcium related inhibitor EGTA; assay type: functional; conditions: mitochondria
HL-60 [18] = assay: Induction of mitochondrial dysfunction in human HL60 cells assessed as increase in intracellular calcium level at 0.75 to 1.5 uM after 4 to 24 hrs by Fluo-3 AM dye-based flow cytometry; assay type: functional, cell-based
HL-60 [19] = assay: Induction of cell death in human HL60 cells at 1 to 1.5 uM after 24 hrs in presence of antioxidant L-ascorbic acid by trypan blue assay; assay type: functional, cell-based
HL-60 [20] = assay: Induction of cell death in human HL60 cells at 1 to 1.5 uM after 24 hrs in presence of […] BSO by MTT assay; assay type: functional, cell-based
[21] = biological target: T2, Glutathione reductase, mitochondrial (Homo sapiens) (UniProt P00390); assay: Effect on glutathione reductase catalytic activity in human HL60 cells; assay type: cell-based
T2 sequence (whole entry): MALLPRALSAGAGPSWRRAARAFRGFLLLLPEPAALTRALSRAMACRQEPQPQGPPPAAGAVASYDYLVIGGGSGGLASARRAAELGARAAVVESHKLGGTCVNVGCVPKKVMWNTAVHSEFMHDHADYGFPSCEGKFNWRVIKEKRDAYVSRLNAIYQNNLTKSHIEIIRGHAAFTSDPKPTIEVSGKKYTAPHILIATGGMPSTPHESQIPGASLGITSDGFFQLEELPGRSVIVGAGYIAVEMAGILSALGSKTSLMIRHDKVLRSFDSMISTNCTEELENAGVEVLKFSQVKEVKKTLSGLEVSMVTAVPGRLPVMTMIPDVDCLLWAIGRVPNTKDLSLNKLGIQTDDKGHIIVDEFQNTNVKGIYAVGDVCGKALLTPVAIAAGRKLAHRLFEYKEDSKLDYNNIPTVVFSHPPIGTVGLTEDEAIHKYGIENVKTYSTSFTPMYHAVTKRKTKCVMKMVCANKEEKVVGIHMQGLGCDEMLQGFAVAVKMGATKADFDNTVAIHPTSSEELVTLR

HL-60 [22] = assay: Induction of cell death in human HL60 cells at 0.4 uM after 24 hrs in absence of BSO by MTT assay; assay type: functional, cell-based
[23] = biological target: T1, Thioredoxin reductase 1, cytoplasmic (Homo sapiens); assay: Inhibition of TrxR in human HL60 cells assessed as residual activity at 1.5 using thioredoxin as substrate measured for 5 mins by UV-Vis spectrophotometric analysis; assay type: cell-based
HL-60 [24] = assay: Induction of cell death in human HL60 cells at 1 to 1.5 uM after 24 hrs in presence of antioxidant lipoic acid by trypan blue assay; assay type: functional, cell-based
HL-60 [25] = assay: Induction of mitochondrial membrane potential loss in human HL60 cells at 1 uM after 24 hrs by JC-1 staining-based flow cytometry; assay type: functional, cell-based

| Compound | Activity (HL-60 [1]) | IC50 (HL-60 [1]) | Activity (MCF7 [2]) | IC50 (MCF7 [2]) | Activity (SGC-7901 [3]) | IC50 (SGC-7901 [3]) | Activity (SGC-7901 [4]) | IC50 (SGC-7901 [4]) | IC50 (GES1 [5]) | Activity (GES1 [5]) | IC50 (GES1 [6]) | Activity (GES1 [6]) | Activity (MCF7 [7]) | Activity (SGC-7901 [8]) | Activity [9] | Activity (HL-60 [10]) | Activity (HL-60 [11]) | Activity (HL-60 [12]) | Activity (HL-60 [13]) | Activity (HL-60 [14]) | further results |
| --- | --- | --- | --- | --- | --- | --- | --- | --- | --- | --- | --- | --- | --- | --- | --- | --- | --- | --- | --- | --- | --- |
| O=C(Nc1ccc([As]2SCCCS2)cc1)c1ccccc1O | Dose-dependent effect | 0.69 µM | Dose-dependent effect | 11.9 µM | Dose-dependent effect | 14.5 µM | Dose-dependent effect | 6.75 µM | 13.4 µM | Dose-dependent effect | 9.07 µM | Dose-dependent effect | Tde | Tde | 20% | Active | Active | Dose-dependent effect | Active | Active | Activity (HL-60 [15]): Active; Activity (HL-60 [16]): Active; Activity (HL-60 [17]): Active; Activity (Liver): inactive; Activity (HL-60 [18]): Active; Activity (HL-60 [19]): Active; Activity (HL-60 [20]): Active; Activity [21]: inactive; Activity (HL-60 [22]): Active; inhibition [23]: Dose-dependent effect; Activity (HL-60 [24]): inactive; Activity (HL-60 [25]): Active |
| Oc1ccccc1/C=N/c1ccc([As]2SCCCS2)cc1 | Dose-dependent effect | 0.71 µM | Dose-dependent effect | 5.7 µM | Dose-dependent effect | 7.69 µM | Dose-dependent effect | 4.05 µM | 5.99 µM | Dose-dependent effect | 3.55 µM | Dose-dependent effect | Tde | Tde | 20% | Active | Active | Dose-dependent effect | Active | Active | Activity (HL-60 [15]): Active; Activity (HL-60 [16]): Active; Activity (HL-60 [17]): Active; Activity (Liver): inactive; Activity (HL-60 [18]): Active; Activity (HL-60 [19]): Active; Activity (HL-60 [20]): Active; Activity [21]: inactive; Activity (HL-60 [22]): Active; inhibition [23]: Dose-dependent effect; Activity (HL-60 [24]): inactive; Activity (HL-60 [25]): Active |

From ChEMBL document CHEMBL4138191, “Organic arsenicals target thioredoxin reductase followed by oxidative stress and mitochondrial dysfunction resulting in apoptosis” (Eur J Med Chem, 2018)
